Patent US6376497B1, “Antifungal azole derivatives having a fluorinated vinyl group and process for preparing same” (Korea Research Institute of Chemical Technology, priority 1999, dated 2002)

Experiments:
Test in all cases: In vitro antifungal activity, microbroth dilution MIC
Assay type in all cases: cell-based
Details in all cases: RPMI-1640, 35° C., 4 to 48 hours, no growth observed
[1] = system: Aspergillus furnigatus B. 19119
In short: (§1)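 Broth microdilution adapted from NCCLS M27, in RPMI-1640 with 0.165 M MOPS, pH 7.0. Yeast or mould inoculum at 2×10^3 CFU/ml was mixed 1:1 with DMSO-derived compound solutions (200 to 0.10 μg/ml before mixing) and incubated at 35 °C for 4 to 48 h. MIC was the concentration showing no growth.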

[2] = system: Aspergillus niger A. 16404
In short: as §1

[3] = system: Candida albicans A. 10231
In short: as §1

Candida albicans C1-2 = system: Candida albicans C1-2
In short: as §1

[4] = system: Candida albicans IFO. 1385
In short: as §1

Candida krusei K. 11655 = system: Candida krusei K. 11655
In short: as §1

[5] = system: Candida parapsitosis A. 7330
In short: as §1

[6] = system: Candida pseudotropicalis K. 11658
In short: as §1

[7] = system: Candida tropicalis A. 13803
In short: as §1

[8] = system: Cryptococcus neoformans A. 34144
In short: as §1

[9] = system: Cryptococcus neoformans B. 42419
In short: as §1

[10] = system: Cryptococcus neoformans IFM. 40092
In short: as §1

[11] = system: Torulopsis glabrata B. 16205
In short: as §1

[12] = system: Trichophyton mentagrophytes A. 9129
In short: as §1

[13] = system: Trichophyton mentagrophytes B. 32663
In short: as §1

Row | Compound | Minimal inhibitory concentration(MIC), A furnigatus B. 19119 [1] [µg/mL] | Minimal inhibitory concentration(MIC), A. niger A. 16404 [2] [µg/mL] | Minimal inhibitory concentration(MIC), C. albicans A. 10231 [3] [µg/mL] | Minimal inhibitory concentration(MIC), C. albicans C1-2 (Candida albicans C1-2) [µg/mL] | Minimal inhibitory concentration(MIC), C. albicans IFO. 1385 [4] [µg/mL] | Minimal inhibitory concentration(MIC), C. krusei K. 11655 (Candida krusei K. 11655) [µg/mL] | Minimal inhibitory concentration(MIC), C. parapsitosis A. 7330 [5] [µg/mL] | Minimal inhibitory concentration(MIC), C. pseudotropicalis K. 11658 [6] [µg/mL] | Minimal inhibitory concentration(MIC), C. tropicalis A. 13803 [7] [µg/mL] | Minimal inhibitory concentration(MIC), Cry. neoformans A. 34144 [8] [µg/mL] | Minimal inhibitory concentration(MIC), Cry. neoformans B. 42419 [9] [µg/mL] | Minimal inhibitory concentration(MIC), Cry. neoformans IFM. 40092 [10] [µg/mL] | Minimal inhibitory concentration(MIC), T. glabrata B. 16205 [11] [µg/mL] | Minimal inhibitory concentration(MIC), T. mentagrophytes A. 9129 [12] [µg/mL] | Minimal inhibitory concentration(MIC), T. mentagrophytes B. 32663 [13] [µg/mL]
1 | COc1cccc(C=C(F)Oc2ccc(OCC3COC(Cn4ccnc4)(c4ccc(Cl)cc4Cl)O3)cc2)c1 (mixture of isomers) [Ex. 90] | >100 | >100 | 100 | 100 | 12.5 | >100 | >100 | >100 | >100 | 12.5 | 6.25 | 0.78 | 100 | 50.0 | 50.0
2 | FC(=Cc1cccc(Cl)c1)Oc1ccc(OCC2COC(Cn3ccnc3)(c3ccc(Cl)cc3Cl)O2)cc1 (mixture of isomers) [Ex. 91] | 100 | >100 | 100 | 100 | 6.25 | >100 | >100 | >100 | >100 | 1.56 | 1.56 | 0.78 | >100 | 100 | >100
3 | FC(=Cc1ccc(F)cc1)Oc1ccc(OCC2COC(Cn3ccnc3)(c3ccc(Cl)cc3Cl)O2)cc1 (mixture of isomers) [Ex. 92] | >100 | >100 | 25.0 | 50.0 | 3.13 | >100 | >100 | >100 | >100 | 3.13 | 3.13 | 0.78 | 50.0 | 25.0 | 12.5
4 | FC(Oc1ccc(OCC2COC(Cn3ccnc3)(c3ccc(Cl)cc3Cl)O2)cc1)=C(c1ccccc1)C(F)(F)F (mixture of isomers) [Ex. 93] | >100 | >100 | 100 | >100 | 6.25 | >100 | >100 | >100 | >100 | 12.5 | >100 | 1.56 | 100 | 25.0 | 25.0
5 | Cc1ccc(C(=C(F)Oc2ccc(OCC3COC(Cn4ccnc4)(c4ccc(Cl)cc4Cl)O3)cc2)C(F)(F)F)cc1 (mixture of isomers) [Ex. 94] | >100 | >100 | 25.0 | 50.0 | 3.13 | >100 | >100 | >100 | >100 | 3.13 | 3.13 | 0.78 | 50.0 | 25.0 | 12.5
6 | FC(Oc1ccc(OCC2COC(Cn3ccnc3)(c3ccc(Cl)cc3Cl)O2)cc1)=C(c1cccc(C(F)(F)F)c1)C(F)(F)F (mixture of isomers) [Ex. 96] | 100 | >100 | 100 | 100 | 3.13 | >100 | >100 | >100 | >100 | 3.13 | 3.13 | 0.39 | 100 | 12.5 | 6.25
7 | FC(Oc1ccc(OCC2COC(Cn3ccnc3)(c3ccc(Cl)cc3Cl)O2)cc1)=C(c1ccc(C(F)(F)F)cc1)C(F)(F)F (mixture of isomers) [Ex. 97] | >100 | >100 | >100 | >100 | 3.13 | >100 | >100 | >100 | >100 | 3.13 | 3.13 | 0.78 | 100 | 25.0 | 12.5
8 | COc1ccc(C(=C(F)Oc2ccc(OCC3COC(Cn4ccnc4)(c4ccc(Cl)cc4Cl)O3)cc2)C(F)(F)F)cc1 (mixture of isomers) [Ex. 98] | >100 | >100 | 50.0 | 100 | 3.13 | >100 | >100 | >100 | >100 | 3.13 | 6.25 | 0.78 | 50 | 25.0 | 6.25
9 | FC(Oc1ccc(OCC2COC(Cn3ccnc3)(c3ccc(Cl)cc3Cl)O2)cc1)=C(c1ccc2c(c1)OCO2)C(F)(F)F (mixture of isomers) [Ex. 99] | >100 | >100 | 100 | >100 | 3.13 | >100 | >100 | >100 | >100 | 3.13 | 3.13 | 0.78 | 100 | 50.0 | 25.0
